# Laboratory results published in US20110293746A1, “Modulation of Gsk-3Beta and Method of Treating Proliferative Disorders” (Agency For Science, Technology and Research, priority 2004, published 2011).
# System: p53 in HCT116 cells
# Experiment: p53 accumulation in cytosol and mitochondria (subcellular fractionation, Western blot)
# Type: cell-based, Human
# Conditions: in the presence of LY2119301, etoposide 24 h
# Experimental: Western blotting, immunoprecipitation and microarray analysis: Cells were scraped, collected and lysed as described previously (Yu, Q., et al. Cancer Res, 62: 5743-5748, 2002). Briefly, cells were lysed with cell lysis buffer (0.3% NP40, 1 mM EDTA, 50 mM Tris-HCl (pH 7.4), 2 mM EGTA, 1% Triton X-100, […], 25 mM NaF, 1 mM Na3VO4, 2 mM AEBSF, 5 μg/ml aprotinin, 1 μg/ml leupeptin) for 30 minutes on ice, and the lysates were clarified by centrifugation at 12,000×g for 15 minutes at 4° C. Protein concentration was quantified (Bio-Rad, Hercules, Calif.) and protein samples (50 μg) were separated by SDS/PAGE and transferred onto Immobilon™ membranes (Millipore, Bedford, Mass.). Antibodies against the following proteins were used: p53 (DO-1), p21, PARP, GSK-α/β, α-Tubulin, and β-actin (Santa Cruz Biotechnology), Puma (Ab-1, Oncogene), Bax (Sigma), phosphor-(Ser9/21)-GSK-3α/β and Caspase-9 (Cell Signaling Technologies), phosphor-(Tyr216/279)-GSK-3α/β (Upstate Biotechnologies), cytochrome c (BD PharMingen). To detect Bax conformational change, cells were lysed in 1% Chaps buffer and the soluble fraction was immunoprecipitated with anti-Bax monoclonal antibody (6A7, BD, PharMingen), followed by immunoblotting with anti-Bax polyclonal antibody. Microarray analysis was performed as described (Kho, P. S., et al. J Biol Chem, 279: 21183-21192, 2004).
# Subcellular fractionation: Cells were lysed in mitochondria lysis buffer (210 mM Mannitol, 70 mM Sucrose, 10 mM Hepes (pH, 7.4), 1 mM EDTA, protease inhibitor cocktail) with a Dounce homogenizer and subjected to centrifugation at 1000×g to pellet the nuclei. Post-nuclear supernatant was centrifuged at 10,000×g to pellet the mitochondria-enriched heavy membrane fraction, and the resulting supernatant was further centrifuged to obtain cytosolic fraction. Total proteins (30 μg) from cytosolic or mitochondrial fractions were subjected to immunoblot analysis.
compound,measurement,value
CN1CCN(c2ccc(NCCNc3ccc([N+](=O)[O-])c(N)n3)nc2-c2ccc(Cl)cc2Cl)C(=O)C1 [LY2119301],etoposide-induced p53 accumulation in cytosol,similarly decreased
same,etoposide-induced p53 accumulation in mitochondria,similarly decreased
